In ChEMBL document CHEMBL3734705, “Synthesis and in vitro cytotoxicity of novel C-12 substituted-14-deoxy-andrographolide derivatives as potent anti-cancer agents” (2015):
The source made the active and inactive calls. The rule behind the calls is not given here.

What was measured:
MDA-MB-468 [1] = assay: Cytotoxicity against human MDA-MB-468 cells assessed as growth level at 10 uM after 48 hrs by SRB assay; format: functional
NCI-H23 [2] = assay: Cytotoxicity against human NCI-H23 cells assessed as growth inhibition at 10 uM after 48 hrs by SRB assay; format: functional; settings: NCI-H23, 48 h, read-out: GI
U-251 = assay: Cytotoxicity against human U251 cells assessed as growth level at 10 uM after 48 hrs by SRB assay; format: functional
[3] = Cytotoxicity against human HCT116 cells assessed as growth level at 10 uM after 48 hrs by SRB assay; format: functional, HCT-116
[4] = Cytotoxicity against human UO31 cells assessed as growth inhibition at 10 uM after 48 hrs by SRB assay; format: functional; settings: UO-31, 48 h, read-out: GI
[5] = Cytotoxicity against human SW620 cells assessed as growth inhibition at 10 uM after 48 hrs by SRB assay; format: functional; settings: SW-620, 48 h, read-out: GI
MCF7 = assay: Cytotoxicity against human MCF7 cells assessed as growth level at 10 uM after 48 hrs by SRB assay; format: functional
NCI-H322M = assay: Cytotoxicity against human NCI-H322M cells assessed as growth level at 10 uM after 48 hrs by SRB assay; format: functional
[6] = Cytotoxicity against human OVCAR8 cells assessed as growth inhibition at 10 uM after 48 hrs by SRB assay; format: functional; settings: OVCAR-8, 48 h, read-out: GI
MDA-MB-231 = assay: Cytotoxicity against human MDA-MB-231 cells assessed as growth inhibition at 10 uM after 48 hrs by SRB assay; format: functional
[7] = Cytotoxicity against human UACC257 cells assessed as growth level at 10 uM after 48 hrs by SRB assay; format: functional, UACC-257
[8] = Cytotoxicity against human SW620 cells assessed as growth level at 10 uM after 48 hrs by SRB assay; format: functional, SW-620
SR [9] = assay: Cytotoxicity against human SR cells assessed as growth level at 10 uM after 48 hrs by SRB assay; format: functional
KM12 = assay: Cytotoxicity against human KM12 cells assessed as growth inhibition at 10 uM after 48 hrs by SRB assay; format: functional; settings: KM12, 48 h, read-out: GI
[10] = Cytotoxicity against human SF268 cells assessed as growth level at 10 uM after 48 hrs by SRB assay; format: functional, SF-268
NCI-H226 = assay: Cytotoxicity against human NCI-H226 cells assessed as growth inhibition at 10 uM after 48 hrs by SRB assay; format: functional; settings: NCI-H226, 48 h, read-out: GI
[11] = Cytotoxicity against human DU145 cells assessed as growth level at 10 uM after 48 hrs by SRB assay; format: functional, DU-145
NCI-H522 = assay: Cytotoxicity against human NCI-H522 cells assessed as growth level at 10 uM after 48 hrs by SRB assay; format: functional
[12] = Cytotoxicity against human DU145 cells assessed as growth inhibition at 10 uM after 48 hrs by SRB assay; format: functional; settings: DU-145, 48 h, read-out: GI
[13] = Cytotoxicity against human Hs578T cells assessed as growth level at 10 uM after 48 hrs by SRB assay; format: functional, Hs-578T
MDA-MB-468 [14] = assay: Cytotoxicity against human MDA-MB-468 cells assessed as growth inhibition at 10 uM after 48 hrs by SRB assay; format: functional; settings: MDA-MB-468, 48 h, read-out: GI
NCI-H460 = assay: Cytotoxicity against human NCI-H460 cells assessed as growth level at 10 uM after 48 hrs by SRB assay; format: functional
NCI-H23 [15] = assay: Cytotoxicity against human NCI-H23 cells assessed as growth level at 10 uM after 48 hrs by SRB assay; format: functional
[16] = Cytotoxicity against human MOLT4 cells assessed as growth level at 10 uM after 48 hrs by SRB assay; format: functional, MOLT-4
[17] = Cytotoxicity against human HOP62 cells assessed as growth level at 10 uM after 48 hrs by SRB assay; format: functional, HOP-62
[18] = Cytotoxicity against human LOXIMVI cells assessed as growth inhibition at 10 uM after 48 hrs by SRB assay; format: functional; settings: LOX IMVI, read-out: GI
[19] = Cytotoxicity against human NCI-ADR-RES cells assessed as growth inhibition at 10 uM after 48 hrs by SRB assay; format: functional; settings: read-out: GI
786-0 = assay: Cytotoxicity against human 786-0 cells assessed as growth inhibition at 10 uM after 48 hrs by SRB assay; format: functional; settings: 786-0, 48 h, read-out: GI
[20] = Cytotoxicity against human UACC257 cells assessed as growth inhibition at 10 uM after 48 hrs by SRB assay; format: functional; settings: UACC-257, 48 h, read-out: GI
SN12C [21] = assay: Cytotoxicity against human SN12C cells assessed as growth inhibition at 10 uM after 48 hrs by SRB assay; format: functional; settings: read-out: GI
[22] = Cytotoxicity against human UACC62 cells assessed as growth inhibition at 10 uM after 48 hrs by SRB assay; format: functional; settings: UACC-62, 48 h, read-out: GI
A549 = assay: Cytotoxicity against human A549 cells assessed as growth inhibition at 10 uM after 48 hrs by SRB assay; format: functional; settings: A549, 48 h, read-out: GI
SK-MEL-5 = assay: Cytotoxicity against human SK-MEL-5 cells assessed as growth level at 10 uM after 48 hrs by SRB assay; format: functional
SN12C [23] = assay: Cytotoxicity against human SN12C cells assessed as growth level at 10 uM after 48 hrs by SRB assay; format: functional
[24] = Cytotoxicity against human IGROV1 cells assessed as growth level at 10 uM after 48 hrs by SRB assay; format: functional, IGROV-1
[25] = Cytotoxicity against human HL-60(TB) cells assessed as growth level at 10 uM after 48 hrs by SRB assay; format: functional
[26] = Cytotoxicity against human OVCAR4 cells assessed as growth level at 10 uM after 48 hrs by SRB assay; format: functional, OVCAR-4
SR [27] = assay: Cytotoxicity against human SR cells assessed as growth inhibition at 10 uM after 48 hrs by SRB assay; format: functional; settings: read-out: GI
MDA-MB-435 = assay: Cytotoxicity against human MDA-MB-435 cells assessed as growth level at 10 uM after 48 hrs by SRB assay; format: functional

C=C1CC[C@@H]2[C@](C)(CO)[C@H](O)CC[C@@]2(C)[C@@H]1C/C=C1/C(=O)OC[C@H]1O [ANDROGRAPHOLIDE]
Activity (MDA-MB-468 [1]): 42% | inhibition of growth at 10 µM (NCI-H23 [2]): 2.11% | Activity (U-251): 75.79% | Activity [3]: 60.01% | inhibition of growth at 10 µM [4]: 10.4% | inhibition of growth at 10 µM [5]: 55.7% | Activity (MCF7): 57.55% | Activity (NCI-H322M): 92.74% | inhibition of growth at 10 µM [6]: 15.5% | growth inhibition (GI) (MDA-MB-231): inactive | Activity [7]: 76.51% | Activity [8]: 44.29% | Activity (SR [9]): 79.53% | inhibition of growth at 10 µM (KM12): 19.8% | Activity [10]: 97.66% | inhibition of growth at 10 µM (NCI-H226): 8.26% | Activity [11]: 80.06% | Activity (NCI-H522): 17.13% | inhibition of growth at 10 µM [12]: 19.9% | Activity [13]: 110.33% | inhibition of growth at 10 µM (MDA-MB-468 [14]): 58% | Activity (NCI-H460): 97.98% | Activity (NCI-H23 [15]): 97.89% | Activity [16]: 98.11% | Activity [17]: 96.27% | inhibition of growth at 10 µM [18]: 78.2% | inhibition of growth at 10 µM [19]: 16.5% | inhibition of growth at 10 µM (786-0): 15.3% | inhibition of growth at 10 µM [20]: 23.5% | inhibition of growth at 10 µM (SN12C [21]): 18.3% | inhibition of growth at 10 µM [22]: 30.1% | inhibition of growth at 10 µM (A549): 12.2% | Activity (SK-MEL-5): 77.27% | Activity (SN12C [23]): 81.73% | Activity [24]: 103.71% | Activity [25]: 100.04% | Activity [26]: 82.87% | inhibition of growth at 10 µM (SR [27]): 20.5% | Activity (MDA-MB-435): 72.62%
